Source: US20250295646A1, “METHODS OF USE OF T-TYPE CALCIUM CHANNEL MODULATORS” (Praxis Precision Medicines, Inc., priority 2022, published 2025)
Read-outs that look alike come from different tables or passages of the source.

How the values were obtained:
Format in all cases: in vivo, human
[1] = test system: adult patients with essential tremor; assay: Example 16 Part B: QUEST total score; details: for QUEST total score, LS mean change from randomization baseline (Day 42): Formula (I) group; for QUEST total score, LS mean change from pre-dose baseline: Part B OLT
Description: Patients were scheduled for Safety Follow-up on Day 70 (±1 day) in the clinic for the final clinical trial assessment.

[2] = test system: adult patients with essential tremor; assay: Essential tremor trial Example 16 Part B randomized withdrawal phase: TETRAS, mADL, ADL efficacy; set-up: TETRAS mADL Mean CFB (SD): unit not given here; details: for TETRAS ADL LS Mean CFB / TETRAS CULS LS Mean CFB / TETRAS PS Item 6: Archimedes Spiral (Left) LS Mean CFB / TETRAS PS Item 6: Archimedes Spiral (Right) LS Mean CFB / TETRAS PS Item 7: Handwriting LS Mean CFB / TETRAS PSTS LS Mean CFB / TETRAS ULS LS Mean CFB / TETRAS mADL LS Mean CFB: change from randomization baseline; for TETRAS ADL Mean CFB (SD) / TETRAS CULS CTA (%) / TETRAS PS Item 6: Archimedes Spiral (Left) CTA (%) / TETRAS PS Item 6: Archimedes Spiral (Right) CTA (%) / TETRAS PS Item 7: Handwriting CTA (%) / TETRAS PSTS CTA (%) / TETRAS ULS CTA (%) / TETRAS mADL Mean CFB (SD): from randomization baseline
Procedure: A two part trial (Part A and Part B as described below) was conducted to study the efficacy, safety, tolerability, and pharmacokinetics of the compound of formula (I) in adult patients with essential tremor (ET).
Participants were males and females ages 18 and older with a clinical diagnosis of ET. Participants who have a history of any other medical, neurological, or psychiatric condition that may explain or cause tremor were excluded. Participants who have previously received treatment with formula (I) in any clinical trial (including Part A of the current trial for participants enrolling in Part B) were also excluded.
In Part B, an open label titration phase and a randomized, double-blind, placebo-controlled trial was conducted.

[3] = Within-participant escalating dose trial Part B: safety and tolerability; details: for dose levels well-tolerated with titration: titrated dosing schedule, per day
[4] = Food effect (high-fat, high-calorie meal) on pharmacokinetics, single 20 mg dose; details: for Tmax / AUC(0-t) / AUC(0-inf) / Cmax: human, plasma, 20 mg; for Tmax: oral, single 20 mg; for AUC(0-t) / AUC(0-inf) / Cmax: po
Procedure: The effect of a high-fat, high-calorie meal on the pharmacokinetics of a compound of formula (II) was evaluated in an open-label, sequential fashion following a single 20 mg dose of formulation 5 in participants who had previously received a 20 mg dose of formulation 5 under fasted conditions.

[5] = Formula (I) group, Day 70 follow-up
[6] = Part B - RWD, RWAS, Formula (I) group, Day 56
[7] = Part B - RWD, RWAS, Formula (I) group, Day 70
[8] = Part B - RWD, RWAS, Formula (I) group, Randomization Baseline (Day 42 post-dose value)
[9] = Part B RWD, Formula (I) group, Day 56

## CC(C)(C)NC(=O)CN1CCC(CNC(=O)c2cc(F)cc(Cl)c2)CC1 [compound of formula (I), N-((1-(2-(tert-butylamino)-2-oxoethyl)piperidin-4-yl)methyl)-3-chloro-5-fluorobenzamide]
[1]; Day 70 follow-up
  QUEST total score, LS mean change from randomization baseline (Day 42): 1.741
[1]; Day 7
  QUEST total score, LS mean change from pre-dose baseline: −0.561
[1]; Day 21
  QUEST total score, LS mean change from pre-dose baseline: −5.933
[1]; Day 42
  QUEST total score, LS mean change from pre-dose baseline: −8.203
[1]; Part B RWD, Day 56
  QUEST total score, LS mean change from randomization baseline (Day 42): −1.322
[2]; [5]
  TETRAS ADL score, LS mean change from randomization baseline (Day 42): 3.267
  TETRAS combined upper limb score, LS mean change from randomization baseline (Day 42): 3.156
  increase in combined upper limb tremor amplitude: 28.1%
  increase in upper limb tremor amplitude: 27.2%
  mADL score, LS mean change from randomization baseline (Day 42): 4.353
[2]; Formula (I) group, Day 70 follow-up (2 weeks after cessation)
  TETRAS upper limb score, LS mean change from randomization baseline (Day 42): 1.653
[2]; Part B - RWD, RWAS, Day 56
  TETRAS ADL LS Mean Difference: Formula (I) - Placebo (95% CI): −9.578 (−18.9020, −0.2546)
  TETRAS CULS LS Mean Difference: Formula (I) - Placebo (95% CI): −1.896 (−8.7365, 4.9451)
  TETRAS PSTS LS Mean Difference: Formula (I) - Placebo (95% CI): −3.025 (−11.2090, 5.1595)
  TETRAS ULS LS Mean Difference: Formula (I) - Placebo (95% CI): −0.253 (−4.9188, 4.4129)
  TETRAS mADL LS Mean Difference: Formula (I) - Placebo (95% CI): −8.439 (−15.3856, −1.4916)
[2]; Part B - RWD, RWAS, Day 70
  TETRAS ADL LS Mean Difference: Formula (I) - Placebo (95% CI): −5.988 (−16.8132, 4.8377)
  TETRAS CULS LS Mean Difference: Formula (I) - Placebo (95% CI): −0.964 (−6.5938, 4.6660)
  TETRAS PSTS LS Mean Difference: Formula (I) - Placebo (95% CI): −1.277 (−7.5286, 4.9741)
  TETRAS ULS LS Mean Difference: Formula (I) - Placebo (95% CI): −0.316 (−3.3765, 2.7441)
  TETRAS mADL LS Mean Difference: Formula (I) - Placebo (95% CI): −3.236 (−12.3264, 5.8538)
[2]; [6]
  TETRAS ADL LS Mean CFB: 0.877
  TETRAS CULS LS Mean CFB: 1.525
  TETRAS PS Item 6: Archimedes Spiral (Left) LS Mean CFB: 0.394
  TETRAS PS Item 6: Archimedes Spiral (Right) LS Mean CFB: 0.087
  TETRAS PS Item 7: Handwriting LS Mean CFB: 0.037
  TETRAS PSTS LS Mean CFB: 1.174
  TETRAS ULS LS Mean CFB: 0.716
  TETRAS mADL LS Mean CFB: 1.350
  TETRAS ADL Mean CFB (SD): 5.84 (16.276)
  TETRAS CULS CTA (%): 14.7%
  TETRAS PS Item 6: Archimedes Spiral (Left) CTA (%): 36.5%
  TETRAS PS Item 6: Archimedes Spiral (Right) CTA (%): 9.5%
  TETRAS PS Item 7: Handwriting CTA (%): 4.2%
  TETRAS PSTS CTA (%): 8.1%
  TETRAS ULS CTA (%): 12.8%
  TETRAS mADL Mean CFB (SD): 8.45 (34.208)
[2]; [7]
  TETRAS ADL LS Mean CFB: 3.267
  TETRAS CULS LS Mean CFB: 3.156
  TETRAS PS Item 6: Archimedes Spiral (Left) LS Mean CFB: 0.384
  TETRAS PS Item 6: Archimedes Spiral (Right) LS Mean CFB: 0.353
  TETRAS PS Item 7: Handwriting LS Mean CFB: 0.189
  TETRAS PSTS LS Mean CFB: 3.422
  TETRAS ULS LS Mean CFB: 1.653
  TETRAS mADL LS Mean CFB: 4.353
  TETRAS ADL Mean CFB (SD): 18.73 (24.838)
  TETRAS CULS CTA (%): 28.1%
  TETRAS PS Item 6: Archimedes Spiral (Left) CTA (%): 35.8%
  TETRAS PS Item 6: Archimedes Spiral (Right) CTA (%): 33.4%
  TETRAS PS Item 7: Handwriting CTA (%): 19.6%
  TETRAS PSTS CTA (%): 21.8%
  TETRAS ULS CTA (%): 27.2%
  TETRAS mADL Mean CFB (SD): 87.71 (126.281)
[2]; [8]
  TETRAS ADL, Mean: 22.17
  TETRAS CULS, Mean: 19.33
  TETRAS PS Item 6: Archimedes Spiral (Left), Mean: 1.75
  TETRAS PS Item 6: Archimedes Spiral (Right), Mean: 1.75
  TETRAS PS Item 7: Handwriting, Mean: 1.75
  TETRAS PSTS, Mean: 22.83
  TETRAS ULS, Mean: 10.25
  TETRAS mADL (TETRAS modified total score), Mean: 12.17
[2]; Part B RWD, Day 56
  TETRAS ADL score, LS mean difference (Formula (I)—Placebo): −9.578
  TETRAS combined upper limb score, LS mean difference (Formula (I)—Placebo): −1.896
  TETRAS upper limb score, LS mean difference (Formula (I)—Placebo): −0.253
  mADL total score, LS mean difference (Formula (I)—Placebo): −8.439
[2]; [9]
  TETRAS ADL score, LS mean change from randomization baseline (Day 42): 0.877
  TETRAS combined upper limb score, LS mean change from randomization baseline (Day 42): 1.525
  TETRAS upper limb score, LS mean change from randomization baseline (Day 42): 0.716
  increase in combined upper limb tremor amplitude: 14.7%
  increase in upper limb tremor amplitude: 12.8%
  mADL total score, LS mean change from randomization baseline (Day 42): 1.350
[3]; highest dose tested 120 mg
  maximum tolerated dosage in the titration scheme: no maximum tolerated dosage was identified
[3]; human, in vivo, 31 days
  Cardiac Disorders: 4 n (%)
  Chest discomfort: 2 n (%)
  Dizziness: 3 n (%)
  General Disorders and Administration Site Conditions: 6 n (%)
  Headache: 2 n (%)
  Intoxicated sensation: 2 n (%)
  Medical device site dermatitis: 3 n (%)
  Nervous System Disorders: 5 n (%)
  Palpitations: 2 n (%)
  Participants with at least one TEAE: 12 n (%)
[3]; in vivo
  treatment related ECG or EEG abnormalities: no treatment related ECG or EEG abnormalities
[3]
  dose levels well-tolerated with titration: ≤ 120 mg

## CC(C)(C)NC(=O)CN1CCC(CNC(=O)c2cc(F)cc(Cl)c2)CC1.Cl [compound of formula (II), N-((1-(2-(tert-butylamino)-2-oxoethyl)piperidin-4-yl)methyl)-3-chloro-5-fluorobenzamide hydrochloride]
[3]
  dose levels well-tolerated with titration: up to 120 mg
[4]; fasted
  Tmax: 4 h
[4]; high-fat, high-calorie meal
  Tmax: 5 h
[4]; single 20 mg oral dose, fasted, read-out: AUClast, Fasted Geometric Mean (Adjusted)
  AUC(0-t): 905 ng·h/mL
[4]; single 20 mg oral dose, fasted, read-out: AUC∞, Fasted Geometric Mean (Adjusted)
  AUC(0-inf): 942 ng·h/mL
[4]; single 20 mg oral dose, fasted, read-out: Cmax, Fasted Geometric Mean (Adjusted)
  Cmax: 43.6 ng/mL
[4]; single 20 mg oral dose, high-fat/high-calorie meal, read-out: AUClast, Fed Geometric Mean (Adjusted)
  AUC(0-t): 1040 ng·h/mL
[4]; single 20 mg oral dose, high-fat/high-calorie meal, read-out: AUC∞, Fed Geometric Mean (Adjusted)
  AUC(0-inf): 1080 ng·h/mL
[4]; single 20 mg oral dose, high-fat/high-calorie meal, read-out: Cmax, Fed Geometric Mean (Adjusted)
  Cmax: 64.7 ng/mL
[4]; single 20 mg oral dose
  AUClast Ratio (fed/fasted): 1.14
  AUC∞ Ratio (fed/fasted): 1.15
  Cmax Ratio (fed/fasted): 1.49
